According to ChEMBL document CHEMBL1828558, “Discovery of (+)-N-(3-aminopropyl)-N-[1-(5-benzyl-3-methyl-4-oxo-[1,2]thiazolo[5,4-d]pyrimidin-6-yl)-2-methylpropyl]-4-methylbenzamide (AZD4877), a kinesin spindle protein inhibitor and potential anticancer agent” (J Med Chem, 2011):
≈ marks a conversion by molar mass, not a printed value. Blank lines part the entries; values can stand above or below the molecule they belong to. Calls of active or inactive are those of the source. The rule behind the calls is not given here.

Assays:
[1] = target: T1, Kinesin-like protein KIF11 (Homo sapiens, UniProt P52732); experiment: Inhibition of human recombinant C-terminal His6-tagged KSP ATPase activity after 1 hr by malachite green assay
T1 sequence (P52732 whole entry): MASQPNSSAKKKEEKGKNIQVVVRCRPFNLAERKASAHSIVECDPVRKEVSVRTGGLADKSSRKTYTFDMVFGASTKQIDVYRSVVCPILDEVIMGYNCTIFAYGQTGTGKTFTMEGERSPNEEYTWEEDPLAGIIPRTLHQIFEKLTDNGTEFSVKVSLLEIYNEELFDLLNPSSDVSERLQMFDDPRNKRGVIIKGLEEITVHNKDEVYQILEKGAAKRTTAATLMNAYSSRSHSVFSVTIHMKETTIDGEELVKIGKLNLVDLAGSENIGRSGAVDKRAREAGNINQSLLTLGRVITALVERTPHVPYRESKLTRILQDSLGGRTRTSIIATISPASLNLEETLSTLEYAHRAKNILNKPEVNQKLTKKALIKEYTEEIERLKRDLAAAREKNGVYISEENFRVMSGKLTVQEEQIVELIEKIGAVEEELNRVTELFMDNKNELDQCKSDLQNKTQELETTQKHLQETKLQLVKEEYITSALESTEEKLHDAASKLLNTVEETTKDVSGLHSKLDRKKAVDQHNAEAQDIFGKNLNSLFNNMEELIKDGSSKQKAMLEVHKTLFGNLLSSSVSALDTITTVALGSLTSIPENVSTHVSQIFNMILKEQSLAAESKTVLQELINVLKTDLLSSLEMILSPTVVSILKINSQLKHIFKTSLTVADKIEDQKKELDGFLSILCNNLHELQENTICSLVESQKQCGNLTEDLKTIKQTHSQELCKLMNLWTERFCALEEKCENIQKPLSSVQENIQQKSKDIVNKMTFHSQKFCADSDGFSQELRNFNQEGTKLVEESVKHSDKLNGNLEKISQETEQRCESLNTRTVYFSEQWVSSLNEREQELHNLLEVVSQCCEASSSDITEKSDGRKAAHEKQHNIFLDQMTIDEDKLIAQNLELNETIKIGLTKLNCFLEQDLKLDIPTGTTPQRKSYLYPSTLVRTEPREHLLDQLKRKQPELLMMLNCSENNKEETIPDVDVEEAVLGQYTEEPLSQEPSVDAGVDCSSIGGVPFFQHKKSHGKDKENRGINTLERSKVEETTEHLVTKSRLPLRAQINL

COLO 205 = experiment: Anticancer activity against human COLO205 cells after 72 hrs by MTS/PMS assay; type: functional, cell-based
[2] = Aqueous solubility of the compound in 0.1 M phosphate buffer at pH 7.4 after 24 hrs by HPLC-UV method; type: physicochemical
Cavia porcellus [3] = organism: Cavia porcellus; experiment: Binding affinity to L-type calcium channel phenylalkylamine binding site in guinea pig ileum at 10 uM by radioligand displacement assay; type: tissue-based
[4] = target: Somatostatin receptor type 1 (Homo sapiens) (UniProt P30872); experiment: Binding affinity to human SST1 receptor at 10 uM by radioligand displacement assay
[5] = target: T2, Polyunsaturated fatty acid 5-lipoxygenase (Homo sapiens) (UniProt P09917); experiment: Inhibition of human 5-lipoxygenase at 10 uM
T2 sequence (whole entry): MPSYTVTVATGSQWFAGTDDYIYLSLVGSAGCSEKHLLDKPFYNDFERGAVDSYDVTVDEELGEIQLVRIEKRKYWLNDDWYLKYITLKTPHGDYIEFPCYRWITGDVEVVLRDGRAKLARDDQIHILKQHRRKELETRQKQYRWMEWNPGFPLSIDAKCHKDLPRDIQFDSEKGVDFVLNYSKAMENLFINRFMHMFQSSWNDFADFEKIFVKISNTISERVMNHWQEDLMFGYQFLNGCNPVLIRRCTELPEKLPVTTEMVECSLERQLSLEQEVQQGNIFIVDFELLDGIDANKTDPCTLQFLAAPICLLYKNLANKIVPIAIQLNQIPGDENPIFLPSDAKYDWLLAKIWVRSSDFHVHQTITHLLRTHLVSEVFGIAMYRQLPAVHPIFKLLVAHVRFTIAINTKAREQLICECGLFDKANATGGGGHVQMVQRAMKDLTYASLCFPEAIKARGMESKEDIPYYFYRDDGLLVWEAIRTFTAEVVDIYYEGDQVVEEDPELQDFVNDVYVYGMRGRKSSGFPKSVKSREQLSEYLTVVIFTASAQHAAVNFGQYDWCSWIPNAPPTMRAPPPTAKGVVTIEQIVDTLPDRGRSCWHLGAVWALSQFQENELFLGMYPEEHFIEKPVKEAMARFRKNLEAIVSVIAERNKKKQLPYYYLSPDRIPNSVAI

Rattus norvegicus [6] = experiment: Increase in caspase 3 activation in Hans Wistar rat hollow fiber model implanted with human COLO205 cells at 6 mg/kg, iv after 48 hrs; type: functional, organism-based; design: dose 6 mg/kg; conditions: COLO 205
Rattus norvegicus [7] = experiment: Increase in caspase 3 activation in Hans Wistar rat hollow fiber model implanted with human COLO205 cells at 12 mg/kg, iv after 48 hrs; type: functional, organism-based; design: dose 12 mg/kg; conditions: COLO 205
Rattus norvegicus [8] = experiment: Increase monasters formation in Hans Wistar rat hollow fiber model implanted with human COLO205 cells at 6 mg/kg, iv after 24 hrs; type: functional, organism-based; design: dose 6 mg/kg; conditions: COLO 205
Rattus norvegicus [9] = experiment: Increase monasters formation in Hans Wistar rat hollow fiber model implanted with human COLO205 cells at 6 mg/kg, iv after 48 hrs; type: functional, organism-based; design: dose 6 mg/kg; conditions: COLO 205
Rattus norvegicus [10] = experiment: Increase monasters formation in Hans Wistar rat hollow fiber model implanted with human COLO205 cells at 12 mg/kg, iv after 24 hrs; type: functional, organism-based; design: dose 12 mg/kg; conditions: COLO 205
Rattus norvegicus [11] = experiment: Increase monasters formation in Hans Wistar rat hollow fiber model implanted with human COLO205 cells at 12 mg/kg, iv after 48 hrs; type: functional, organism-based; design: dose 12 mg/kg; conditions: COLO 205
Rattus norvegicus [12] = experiment: Increase of phospho-histone-H3 positive cells in Hans Wistar rat hollow fiber model implanted with human COLO205 cells at 6 mg/kg, iv after 24 hrs; type: functional, organism-based; design: dose 6 mg/kg; conditions: COLO 205
Rattus norvegicus [13] = experiment: Increase of phospho-histone-H3 positive cells in Hans Wistar rat hollow fiber model implanted with human COLO205 cells at 12 mg/kg, iv after 24 hrs; type: functional, organism-based; design: dose 12 mg/kg; conditions: COLO 205
[14] = target: Tyrosine-protein kinase Lck (Homo sapiens) (UniProt P06239); experiment: Inhibition of LCK at 10 uM
[15] = target: Ribosomal protein S6 kinase alpha-1 (Homo sapiens) (UniProt Q15418); experiment: Inhibition of MAPKAP-K1a at 10 uM
Cavia porcellus [16] = organism: Cavia porcellus; experiment: Binding affinity to sodium channel site 2 in guinea pig atria at 10 uM by radioligand displacement assay
Cavia porcellus [17] = organism: Cavia porcellus; experiment: Binding affinity to L-type calcium channel benzothiazepine binding site in guinea pig ileum at 10 uM by radioligand displacement assay; type: tissue-based
[18] = Clearance in nude mouse; type: ADME, organism-based; conditions: in vivo

Sequence of Tyrosine-protein kinase Lck (Homo sapiens) (P06239 2-509 limits assumed): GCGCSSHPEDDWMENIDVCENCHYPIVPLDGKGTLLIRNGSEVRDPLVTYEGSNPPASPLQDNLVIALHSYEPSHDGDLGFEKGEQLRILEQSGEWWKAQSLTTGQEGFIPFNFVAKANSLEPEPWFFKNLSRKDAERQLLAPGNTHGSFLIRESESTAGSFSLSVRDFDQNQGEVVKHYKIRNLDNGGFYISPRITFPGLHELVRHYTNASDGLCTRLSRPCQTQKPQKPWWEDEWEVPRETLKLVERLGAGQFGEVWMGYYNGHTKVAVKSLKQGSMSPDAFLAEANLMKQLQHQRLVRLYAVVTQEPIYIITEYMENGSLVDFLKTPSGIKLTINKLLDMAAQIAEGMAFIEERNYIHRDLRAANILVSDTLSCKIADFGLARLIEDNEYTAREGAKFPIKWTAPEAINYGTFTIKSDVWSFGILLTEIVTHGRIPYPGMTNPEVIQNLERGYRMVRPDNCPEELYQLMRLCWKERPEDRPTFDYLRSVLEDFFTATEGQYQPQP
Sequence of Ribosomal protein S6 kinase alpha-1 (Homo sapiens) (Q15418 whole entry): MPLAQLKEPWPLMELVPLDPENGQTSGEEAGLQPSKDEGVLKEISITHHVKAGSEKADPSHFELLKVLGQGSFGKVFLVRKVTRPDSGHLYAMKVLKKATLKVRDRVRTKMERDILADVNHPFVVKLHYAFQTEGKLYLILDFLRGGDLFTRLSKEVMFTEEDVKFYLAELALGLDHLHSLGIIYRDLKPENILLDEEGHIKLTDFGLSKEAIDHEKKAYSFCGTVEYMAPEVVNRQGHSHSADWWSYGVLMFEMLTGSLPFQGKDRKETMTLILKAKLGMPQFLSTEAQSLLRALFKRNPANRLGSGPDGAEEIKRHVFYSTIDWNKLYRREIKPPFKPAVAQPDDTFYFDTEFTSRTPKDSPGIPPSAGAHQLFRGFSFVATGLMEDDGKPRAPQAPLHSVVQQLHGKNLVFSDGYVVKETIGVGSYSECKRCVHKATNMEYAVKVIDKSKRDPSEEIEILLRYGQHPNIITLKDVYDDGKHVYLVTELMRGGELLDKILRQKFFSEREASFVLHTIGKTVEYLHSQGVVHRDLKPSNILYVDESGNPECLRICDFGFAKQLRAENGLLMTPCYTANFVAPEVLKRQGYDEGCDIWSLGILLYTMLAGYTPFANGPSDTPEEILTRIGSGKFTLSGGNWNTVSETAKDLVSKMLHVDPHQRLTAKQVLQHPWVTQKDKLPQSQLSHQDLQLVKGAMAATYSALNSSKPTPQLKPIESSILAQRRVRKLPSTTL
Sequence of Somatostatin receptor type 1 (Homo sapiens) (P30872 whole entry): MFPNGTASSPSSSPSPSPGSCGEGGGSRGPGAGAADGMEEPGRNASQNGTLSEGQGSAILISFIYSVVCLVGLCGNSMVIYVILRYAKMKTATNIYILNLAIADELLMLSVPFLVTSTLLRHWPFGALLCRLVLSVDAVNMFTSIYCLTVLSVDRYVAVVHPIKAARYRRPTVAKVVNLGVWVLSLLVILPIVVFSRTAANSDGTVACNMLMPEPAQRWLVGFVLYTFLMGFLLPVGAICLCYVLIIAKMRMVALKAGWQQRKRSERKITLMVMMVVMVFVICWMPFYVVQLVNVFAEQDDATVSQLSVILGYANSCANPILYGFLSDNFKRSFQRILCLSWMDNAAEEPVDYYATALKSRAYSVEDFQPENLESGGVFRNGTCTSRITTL

IC50 [1]: 0.016 µM | IC50 (COLO 205; Homo sapiens, COLO 205, 72 h): 0.023 µM | solubility at 24 h [2]: 69 µM (≈ 32.7 µg/mL)
Structure (SMILES): CCC(c1nc2onc(C)c2c(=O)n1Cc1ccccc1)N(CCCN)C(=O)c1ccc(C)cc1 (centres undefined)

IC50 [1]: 0.008 µM | IC50 (COLO 205; colo 205): 0.03 µM | solubility at 24 h [2]: 1240 µM (≈ 588 µg/mL)
Structure (SMILES): CCC(c1nc2sccc2c(=O)n1Cc1ccccc1)N(CCCN)C(=O)c1ccc(C)cc1 (stereo in doubt; 56)

inhibition [4]: 80% | inhibition [5]: 71% | inhibition [14]: 42% | inhibition [15]: 35% | inhibition (Cavia porcellus [16]): 99%
Structure (SMILES): Cc1ccc(C(=O)N(CCCN)C(c2nc3snc(C)c3c(=O)n2Cc2ccccc2)C(C)C)cc1 (single isomer, unassigned; (+))
inhibition (Cavia porcellus [3]): 76% | Activity (Rattus norvegicus [6]): Active | Activity (Rattus norvegicus [7]): Active | Activity (Rattus norvegicus [8]): Active | Activity (Rattus norvegicus [9]): Active | Activity (Rattus norvegicus [10]): Active | Activity (Rattus norvegicus [11]): Active | Activity (Rattus norvegicus [12]): Active | Activity (Rattus norvegicus [13]): Active | inhibition (Cavia porcellus [17]): 87%

IC50 [1]: 0.001 µM | IC50 (COLO 205; Homo sapiens, COLO 205, 72 h): 0.003 µM | clearance [18]: 50 mL/min/kg
Structure (SMILES): CCC(c1nc2snc(C)c2c(=O)n1Cc1ccccc1)N(CCCN)C(=O)c1ccc(C)cc1 (stereo in doubt; 68)

IC50 [1]: 0.14 µM | IC50 (COLO 205; Homo sapiens, COLO 205, 72 h): 0.57 µM
Structure (SMILES): CCC(c1nc2ccsc2c(=O)n1Cc1ccccc1)N(CCCN)C(=O)c1ccc(F)cc1 (centres undefined)

IC50 [1]: 0.94 µM | IC50 (COLO 205; Homo sapiens, COLO 205, 72 h): 3.3 µM
Structure (SMILES): CCC(c1nc2ccsc2c(=O)n1Cc1ccccc1)N(CCCN)C(=O)c1ccc(C(C)C)cc1 (centres undefined)

IC50 [1]: 0.003 µM | IC50 (COLO 205; colo 205): 0.004 µM | solubility at 24 h [2]: 1570 µM (≈ 770 µg/mL)
Structure (SMILES): CCC(c1nc2snc(C)c2c(=O)n1Cc1ccccc1)N(CCCN)C(=O)c1ccc(C)cc1 (stereo in doubt; 62)

IC50 [1]: 0.01 µM | IC50 (COLO 205; Homo sapiens, COLO 205, 72 h): 0.1 µM
Structure (SMILES): CCC(c1nc2ccsc2c(=O)n1Cc1ccccc1)N(CCCN)C(=O)c1ccc(C)cc1 (centres undefined)

IC50 [1]: 0.021 µM | IC50 (COLO 205; Homo sapiens, COLO 205, 72 h): 0.043 µM
Structure (SMILES): CCC(c1nc2ccn(C)c2c(=O)n1Cc1ccccc1)N(CCCN)C(=O)c1ccc(C)cc1 (centres undefined)

IC50 [1]: 0.5 µM | IC50 (COLO 205; Homo sapiens, COLO 205, 72 h): 1.55 µM
Structure (SMILES): CCC(c1nc2ccsc2c(=O)n1Cc1ccccc1)N(CCCN)C(=O)c1ccco1 (centres undefined)

IC50 [1]: 0.2 µM | IC50 (COLO 205; Homo sapiens, COLO 205, 72 h): 0.68 µM
Structure (SMILES): CCC(c1nc2ccsc2c(=O)n1Cc1ccccc1)N(CCCN)C(=O)c1ccccc1 (centres undefined)
